Experimental data published in the supplement of paper PMC10307832.

What was measured:
Experiment in all cases: relative viability (nuclei count vs DMSO), 5 days (fraction); higher = more cells survive
Midostaurin + AZD7762 = compound: CO[C@@H]1[C@H](N(C)C(=O)c2ccccc2)C[C@H]2O[C@]1(C)n1c3ccccc3c3c4c(c5c6ccccc6n2c5c31)C(=O)NC4 [Midostaurin] + NC(=O)Nc1cc(-c2cccc(F)c2)sc1C(=O)N[C@H]1CCCNC1 [AZD7762] (partner 0.2 µM)
Method in brief: (§1)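 After 5 days of treatment, lung cancer cells in 1536-well plates were fixed and stained in a single step (final 0.05% Triton X-100, 1% formaldehyde, 1 ug/ml Hoechst) and their nuclei counted on 4× images. Treatment had been applied by pin tool the day after seeding as one drug alone or as a fixed anchor-drug dose with five library-drug doses (not always all listed) in √10 steps. Relative viability is the nuclei count of treated wells divided by that of vehicle wells, and values are medians of duplicate plates.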

Midostaurin + Trametinib = compound: CO[C@@H]1[C@H](N(C)C(=O)c2ccccc2)C[C@H]2O[C@]1(C)n1c3ccccc3c3c4c(c5c6ccccc6n2c5c31)C(=O)NC4 [Midostaurin] + CC(=O)Nc1cccc(-n2c(=O)n(C3CC3)c(=O)c3c(Nc4ccc(I)cc4F)n(C)c(=O)c(C)c32)c1 [Trametinib] (partner 0.02 µM)
Method in brief: as §1

[1] = compound: COc1cc(-c2nn([C@H]3CC[C@H](N4CCN(C(C)=O)CC4)CC3)c3ncnc(N)c23)ccc1NC(=O)c1cc2ccccc2n1C + N=C(N)NC(=N)NCCc1ccccc1 [Phenformin] (partner 250 µM)
Method in brief: as §1

[2] = compound: COc1cc(-c2nn([C@H]3CC[C@H](N4CCN(C(C)=O)CC4)CC3)c3ncnc(N)c23)ccc1NC(=O)c1cc2ccccc2n1C + O=C(c1cc(Cc2n[nH]c(=O)c3ccccc23)ccc1F)N1CCN(C(=O)C2CC2)CC1 [Olaparib] (partner 8 µM)
Method in brief: as §1

Midostaurin + Luminespib = compound: CO[C@@H]1[C@H](N(C)C(=O)c2ccccc2)C[C@H]2O[C@]1(C)n1c3ccccc3c3c4c(c5c6ccccc6n2c5c31)C(=O)NC4 [Midostaurin] + CCNC(=O)c1noc(-c2cc(C(C)C)c(O)cc2O)c1-c1ccc(CN2CCOCC2)cc1 [Luminespib] (partner 0.01 µM)
Method in brief: as §1

Cell Line | relative viability (Midostaurin + AZD7762; first compound 0.01 µM) | relative viability (Midostaurin + AZD7762; first compound 0.03162 µM) | relative viability (Midostaurin + AZD7762; first compound 0.1 µM) | relative viability (Midostaurin + AZD7762; first compound 0.3162 µM) | relative viability (Midostaurin + Trametinib; first compound 0.01 µM) | relative viability (Midostaurin + Trametinib; first compound 0.03162 µM) | relative viability (Midostaurin + Trametinib; first compound 0.1 µM) | relative viability (Midostaurin + Trametinib; first compound 0.3162 µM) | relative viability ([1]; first compound 0.0128 µM) | relative viability ([1]; first compound 0.128 µM) | relative viability ([1]; first compound 1.28 µM) | relative viability ([2]; first compound 0.0128 µM) | relative viability ([2]; first compound 0.128 µM) | relative viability ([2]; first compound 1.28 µM) | relative viability (Midostaurin + Luminespib; first compound 0.01 µM) | relative viability (Midostaurin + Luminespib; first compound 0.03162 µM) | relative viability (Midostaurin + Luminespib; first compound 0.1 µM) | relative viability (Midostaurin + Luminespib; first compound 0.3162 µM) | relative viability ([1]; first compound 0.04048 µM) | relative viability ([2]; first compound 0.04048 µM)
NCI-H2087 | 1.39 | 1.16 | 1.36 | 1.03 | 0.178 | 0.221 | 0.187 | 0.273 | 0.505 | 0.529 | 0.462 | 0.644 | 0.616 | 0.722 | 0.258 | 0.18 | 0.154 | 0.169 | – | –
NCI-H2126 | 0.95 | 0.926 | 0.995 | 1.03 | 0.509 | 0.562 | 0.553 | 0.597 | 0.534 | 0.539 | 0.435 | 0.952 | 0.656 | 0.74 | 0.889 | 0.679 | 0.847 | 0.896 | 0.501 | 0.961
NCI-H2170 | 0.891 | 0.85 | 0.866 | 1.14 | 0.965 | 0.9 | 0.894 | 1.02 | 0.437 | 0.405 | 0.377 | 0.72 | 0.595 | 0.541 | 0.628 | 0.509 | 0.633 | 0.767 | 0.412 | 0.615
NCI-H2342 | 0.558 | 0.503 | 0.489 | 0.451 | 0.895 | 0.735 | 0.89 | 0.778 | 0.529 | 0.637 | 0.628 | 0.511 | 0.388 | 0.371 | 0.704 | 0.708 | 0.738 | 0.754 | 0.584 | 0.423
NCI-H2347 | 0.799 | 0.774 | 0.712 | 0.587 | 0.29 | 0.278 | 0.309 | 0.337 | 0.51 | 0.482 | 0.346 | 0.561 | 0.56 | 0.505 | 0.422 | 0.727 | 0.366 | 0.325 | – | 0.597
NCI-H2405 | 0.682 | 0.804 | 0.847 | 0.75 | 0.615 | 0.562 | 0.61 | 0.607 | 0.408 | 0.409 | 0.28 | 0.908 | 0.756 | 0.453 | 0.729 | 0.704 | 0.64 | 0.45 | 0.272 | 0.719
NCI-H3122 | 0.981 | 0.908 | 0.962 | 1.06 | 0.244 | 0.191 | 0.214 | 0.264 | 0.397 | 0.359 | 0.27 | 0.683 | 0.64 | 0.621 | 0.093 | 0.104 | 0.0868 | 0.0981 | 0.35 | –
PC-3 [JPC-3] | 0.737 | 0.892 | 0.759 | 0.869 | 0.684 | 0.722 | 0.699 | 0.814 | 0.488 | 0.461 | 0.512 | 1.15 | 1.08 | 1.24 | 0.736 | 0.658 | 0.667 | 0.692 | 0.474 | 1.35
PC-14 | 0.33 | 0.42 | 0.329 | 0.328 | 0.707 | 0.914 | 0.692 | 0.635 | 0.646 | 0.581 | 0.751 | 0.231 | 0.283 | 0.343 | 0.136 | 0.197 | 0.147 | 0.152 | 0.599 | 0.349
RERF-LC-KJ | 0.994 | 0.96 | 1.05 | 1.03 | 0.854 | 0.921 | 0.84 | 0.806 | 0.377 | 0.413 | 0.379 | 1.03 | 0.928 | 0.941 | 1.29 | 1.49 | 1.14 | 1.17 | 0.448 | 0.946
SW 900 | 0.755 | 0.684 | 0.617 | 0.476 | 0.759 | 0.919 | 0.743 | 0.962 | 0.639 | 0.494 | 0.448 | 1 | 0.845 | 0.574 | 0.192 | 0.198 | 0.189 | 0.151 | 0.66 | 1.17
